Data as given in US5583221A, “Substituted fused and bridged bicyclic compounds as therapeutic agents” (Eli Lilly and Company, priority 1995, dated 1996).
Structures can show the parent of a compound that is named as a salt.

Columns and labels:
K562 cells [1] = experiment: Bleb assay in K562 cells; format: cell-based; conditions: Homo sapiens, blebs on the cell surface, read-out: IC50 of Compounds in Cells, BLEB
Procedure: (§1) Table 1 also includes data from testing in a cellular assay known as the "Bleb" assay. In the Bleb assay K562 cells, a human chronic myeloid leukemia cell line, are treated with compound and scored for the appearance of morphologic changes referred to as blebs on the cell surface. […] H. Osada et al., (1988) 41:7, 925.

NEUTROPHILS = experiment: neutrophil superoxide anion release; format: cell-based; conditions: read-out: IC50 of Compounds in Cells, NEUTROPHILS
Procedure: (§2) To investigate the effect that Formula I compounds have on cell growth and activity, assays are performed such as to determine growth inhibition of cultured tumor cells and cultured keritinocytes, and neutrophil superoxide anion release by well known techniques.
as §1

[2] = test system: phorbol ester-induced mouse ear edema; experiment: phorbol ester-induced mouse ear edema model; format: in vivo
Procedure: Formula I compounds also have been tested in vivo to determine their antiinflammatory activity. The model used for this testing is the well-known, widely accepted phorbol ester-induced mouse ear edema model wherein the efficacy of a test compound to reduce the edema induced by the phorbol ester is measured.

MCF-7 = experiment: growth inhibition of cultured tumor cells (MCF-7); format: cell-based; conditions: Homo sapiens, MCF7, read-out: IC50 of Compounds in Cells, MCF-7
Procedure: as §2, §1

NHEK = experiment: growth inhibition of cultured keritinocytes (NHEK); format: cell-based; conditions: read-out: IC50 of Compounds in Cells, NHEK
Procedure: as §2, §1

[3] = water solubility noted during work-up; format: physicochemical; conditions: observation during HPLC fraction work-up
Procedure: A solution of 8-exo-[4-(2-carbophenylmethoxy-6-phenylmethoxybenzoyl)-3,5-bis(phenylmethoxy)benzoyloxy]-9-endo-(4-phenylmethoxybenzamido)tricyclo[5.2.1.0 (2,6)]decane (0.33 g, 0.32 mmol) in 6:1 ethanol/ethyl acetate (35 mL) in a 500 mL Parr bottle was treated with trifluoroacetic acid (0.15 mL) and purged with nitrogen. Pearlman's catalyst (150 mg) was added, and the vessel was charged with hydrogen (50 psi) and shaken on a Parr apparatus for 18 h. The bottle was carefully evacuated of hydrogen and the solution was filtered through Celite®, then the filter cake was washed with ethanol, but not allowed to dry. The filtrate was concentrated in vacuo to a foamy yellow solid, which was dissolved in DMF (0.8 mL) and loaded onto HPLC; conditions: A- 0.1% TFA/5% CH3 CN/H2 O, B- CH3 CN, 100% A to 100% B over one h, 25 mL/min, 41×250 mm C18 column. […] (dec). Rf (2:1 methylene chloride/methanol on silica) 0.50; IR (KBr) 1703, 1635, 1608 cm^-1; ^1 H NMR (d6 -DMSO) d 11.66 (s, 2H), 9.97 (br s, 1H), 9.88 (s, 1H), 8.35 (d, 1H, J=7 Hz), 7.75 (d, 2H, J=9 Hz), 7.38 (d, 1H, J=8 Hz), 7.28 (t, 1H, J=8 Hz), 7.06 (d, 1H, J=8 Hz), 6.83 (s, 2H), 6.79 (d, 2H, J=9 Hz), 4.83 (d, 1H, J=2.5 Hz), 4.11 (m, 1H), 2.25 (d, 1H, J=4 Hz), 2.10-2.20 (m, 1H), 2.07 (br s, 2H), 1.60-2.00 (m, 3H), 1.48 (br s, 2H), 1.10-1.30 (m, 1H), 0.90-1.10 (m, 2H); mass spectrum (FAB): m/z 588. […]

K562 cells [4] = conditions: previous studies, H. Osada et al. (1988); cited from earlier work

IC50 (MCF-7) [µM] | Compound | antiinflammatory activity: reduction of edema induced by phorbol ester [2] | IC50 (NHEK) [µM] | other results
 | COC(=O)c1cccc(O)c1C(=O)c1c(O)cc(C(=O)OC2C3CCC(C3)C2NC(=O)c2ccc(O)cc2)cc1O (stereo not drawn) [Example 16, anti-2-[4-(2-Methoxycarbonyl-6-hydroxybenzoyl)-3,5-dihydroxybenzoyloxy]-3-(4-hydroxybenzamido)bicyclo[2.2.1]heptane] | active |  | IC50 (K562 cells [1]): 25 µM; IC50 (NEUTROPHILS): 10 µM
 | 7-[4-(2-Methoxycarbonyl-6-hydroxybenzoyl)-3,5-dihydroxybenzoyloxy]-2-(hydroxybenzamido)bicyclo[2.2.1]heptane [Example 14] |  |  | IC50 (NEUTROPHILS): 10 µM
2.1 to 4 | O=C(N[C@@H]1c2ccccc2C[C@@H]1OC(=O)c1cc(O)c(C(=O)c2c(O)cccc2C(=O)O)c(O)c1)c1ccc(O)cc1 (relative stereo) [Example 4, syn-(4-Hydroxybenzamido)-2-[3,5-dihydroxy-4-(2-carboxy-6-hydroxybenzoyl)benzoyloxy]indane] |  | 43 | 
 | O=C(NC1C2CC(C3CCCC32)C1OC(=O)c1cc(O)c(C(=O)c2c(O)cccc2C(=O)O)c(O)c1)c1ccc(O)cc1 (stereo not drawn) [Example 20, 8-exo-[4-(2-Carboxy-6-hydroxybenzoyl)-3,5-dihydroxybenzoyloxy]-9-endo-(4-hydroxybenzamido)tricyclo[5.2.1.0 (2,6)]decane] |  |  | water solubility [3]: not water-soluble
 | O=C(N[C@H]1[C@H]2CC[C@H](C2)[C@H]1OC(=O)c1cc(O)c(C(=O)c2c(O)cccc2C(=O)O)c(O)c1)c1ccc(O)cc1 (relative stereo) [Example 12, syn-2-[4-(2-Carboxy-6-hydroxybenzoyl)-3,5-dihydroxybenzoyloxy]-3-(4-hydroxybenzamido)bicyclo[2.2.1]heptane] | active |  | 
23 | COC(=O)c1cccc(O)c1C(=O)c1c(O)cc(C(=O)O[C@@H]2Cc3ccccc3[C@H]2NC(=O)c2ccc(O)cc2)cc1O (relative stereo) [Example 5] | active | 5 | IC50 (K562 cells [1]): 50 µM
 | O=C(NC1C2CC(C3CCCC32)C1OC(=O)c1cc(O)c(C(=O)c2c(O)cccc2C(=O)O)c(O)c1)c1ccc(O)cc1 (stereo not drawn) [Example 21, 8-endo-[4-(2-Carboxy-6-hydroxybenzoyl)-3,5-dihydroxybenzoyl-oxy]-9-endo-(4-hydroxybenzamido)tricyclo[5.2.1.0 (2,6)]decane] |  |  | water solubility [3]: not water-soluble
 | O=C(NC1C2CCC(C2)C1OC(=O)c1cc(O)c(C(=O)c2c(O)cccc2C(=O)O)c(O)c1)c1ccc(O)cc1 (stereo not drawn) [Example 13, anti-2-[4-(2-Carboxy-6-hydroxybenzoyl)-3,5-dihydroxybenzoyloxy]-3-(4-hydroxybenzamido)bicyclo[2.2.1]heptane] | active |  | 
 | CN[C@@H]1C[C@H]2O[C@@](C)([C@@H]1OC)n1c3ccccc3c3c4c(c5c6ccccc6n2c5c31)C(=O)NC4 [staurosporine] |  |  | phorbol ester-induced blebbing (K562 cells [4]): inhibits
71 | O=C(N[C@@H]1c2ccccc2C[C@H]1OC(=O)c1cc(O)c(C(=O)c2c(O)cccc2C(=O)O)c(O)c1)c1ccc(O)cc1 (relative stereo) [Example 3, anti-1-(4-Hydroxybenzamido)-2-[3,5-dihydroxy-4-(2-carboxy-6-hydroxybenzoyl)benzoyloxy]indane] | active | 50 | 
74 | COC(=O)c1cccc(O)c1C(=O)c1c(O)cc(C(=O)O[C@@H]2C3CCN(CC3)C[C@H]2NC(=O)c2ccc(O)cc2)cc1O (relative stereo) [Example 8, anti-4-[4-(2-methoxycarbonyl-6-hydroxybenzoyl)-3,5-dihydroxybenzoyloxy]-3-(4-hydroxybenzamido)-1-azabicyclo[3.2.2]nonane, trifluoroacetic acid salt] |  | 92 | IC50 (K562 cells [1]): 12.5 µM
